From paper PMC5908784, “Extracellular loops 2 and 3 of the calcitonin receptor selectively modify agonist binding and efficacy” (Biochemical Pharmacology, 2018)
Where a chain is given by its changes, count along the chain named. Where a SMILES comes first, the peptide text is derived from it. Bridges are numbered along the chain shown (N, C = ends).

How the values were obtained:
Experiment in all cases: IP1 accumulation
Assay type in all cases: cell-based
Conditions in all cases: mean ± S.E.M.; for Emax: IP1 maximal response, SEM
[1] = target: T1, hCTR Y374A (Homo sapiens, UniProt P30988, Y374A)
T1 construct: c-Myc (N); expressed in transfected cells
T1 sequence (P30988 25-474 Y374A): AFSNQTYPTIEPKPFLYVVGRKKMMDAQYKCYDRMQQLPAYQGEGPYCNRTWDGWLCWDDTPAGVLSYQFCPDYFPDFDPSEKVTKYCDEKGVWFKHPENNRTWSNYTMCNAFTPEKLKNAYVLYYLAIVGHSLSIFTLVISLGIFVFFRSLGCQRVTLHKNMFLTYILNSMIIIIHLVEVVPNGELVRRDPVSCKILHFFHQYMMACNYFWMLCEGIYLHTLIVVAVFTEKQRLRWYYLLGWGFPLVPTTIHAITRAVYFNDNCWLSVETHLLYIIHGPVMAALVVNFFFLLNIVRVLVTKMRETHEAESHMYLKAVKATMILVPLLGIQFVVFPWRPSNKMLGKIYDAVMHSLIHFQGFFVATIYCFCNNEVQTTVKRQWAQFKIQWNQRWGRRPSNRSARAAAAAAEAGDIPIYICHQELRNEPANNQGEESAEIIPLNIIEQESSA
Summary of the method: (§1)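 Concentration-response curves were fitted to a 3-parameter logistic model to estimate EC50 and Emax. Cells had been exposed to ligand for 60 min with LiCl, and lysate IP1 determined by HTRF, with normalization to 100 μM ATP.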

[2] = target: T2, hCTR M376A (Homo sapiens, UniProt P30988, M376A)
T2 construct: c-Myc (N); expressed in transfected cells
T2 sequence (P30988 25-474 M376A): T1 sequence (P30988 25-474 Y374A) with A350Y, M352A
Summary of the method: as §1

[3] = target: T3, hCTR W361A (Homo sapiens, UniProt P30988, W361A)
T3 construct: expressed in transfected cells
T3 sequence (P30988 25-474 W361A): T1 sequence (P30988 25-474 Y374A) with W337A, A350Y
Summary of the method: as §1

[4] = target: T4, hCTR R281A (Homo sapiens, UniProt P30988, R281A)
T4 construct: expressed in transfected cells
T4 sequence (P30988 25-474 R281A): T1 sequence (P30988 25-474 Y374A) with R257A, A350Y
Summary of the method: as §1

[5] = target: T5, hCTR H296A (Homo sapiens, UniProt P30988, H296A)
T5 construct: c-Myc (N); expressed in transfected cells
T5 sequence (P30988 25-474 H296A): T1 sequence (P30988 25-474 Y374A) with H272A, A350Y
Summary of the method: as §1

[6] = IP1, CV1-FlpIn cells, 60 min, LiCl

EC50 [1, 6] | EC50 [2, 6] | EC50 [3, 6] | EC50 [4, 6] | EC50 [5, 6] | Structure (SMILES) | Emax [1] | Emax [2] | Emax [3] | Emax [4] | Emax [5]
 |  |  |  |  | CC[C@H](C)[C@H](NC(=O)[C@H](C)NC(=O)[C@@H](NC(=O)[C@H](CCC(N)=O)NC(=O)[C@@H]1CCCN1C(=O)[C@H](Cc1ccccc1)NC(=O)[C@@H](NC(=O)[C@H](Cc1c[nH]cn1)NC(=O)[C@H](Cc1ccccc1)NC(=O)[C@H](CCCCN)NC(=O)[C@H](CC(N)=O)NC(=O)[C@H](Cc1ccccc1)NC(=O)[C@H](CC(=O)O)NC(=O)[C@H](CCC(N)=O)NC(=O)[C@@H](NC(=O)[C@H](Cc1ccc(O)cc1)NC(=O)[C@@H](NC(=O)CNC(=O)[C@H](CC(C)C)NC(=O)[C@H](CCSC)NC(=O)[C@@H]1CSSC[C@H](N)C(=O)NCC(=O)N[C@@H](CC(N)=O)C(=O)N[C@@H](CC(C)C)C(=O)N[C@@H](CO)C(=O)N[C@@H]([C@@H](C)O)C(=O)N1)[C@@H](C)O)[C@@H](C)O)[C@@H](C)O)[C@@H](C)O)C(=O)NCC(=O)N[C@H](C(=O)NCC(=O)N[C@@H](C)C(=O)N1CCC[C@H]1C(N)=O)C(C)C [hCT] | 110 ± 9% | 52 ± 5% | 89 ± 9% | 30 ± 4% | 73 ± 6%
12.3 nM | 5.62 nM | 8.32 nM | 2.24 nM | 4.47 nM | CSCC[C@H](NC(=O)CNC(=O)[C@H](CO)NC(=O)[C@H](Cc1ccccc1)NC(=O)[C@H](CCCNC(=N)N)NC(=O)[C@H](Cc1c[nH]cn1)NC(=O)[C@H](Cc1ccccc1)NC(=O)[C@H](CC(N)=O)NC(=O)[C@H](CC(N)=O)NC(=O)[C@H](CC(C)C)NC(=O)[C@H](CC(N)=O)NC(=O)[C@H](CCCNC(=N)N)NC(=O)[C@H](Cc1c[nH]c2ccccc12)NC(=O)[C@H](Cc1ccc(O)cc1)NC(=O)[C@H](C)NC(=O)[C@H](CO)NC(=O)[C@H](CC(C)C)NC(=O)[C@@H](NC(=O)[C@@H]1CSSC[C@H](N)C(=O)N[C@@H](CO)C(=O)N[C@@H](CC(N)=O)C(=O)N[C@@H](CC(C)C)C(=O)N[C@@H](CO)C(=O)N[C@@H]([C@@H](C)O)C(=O)N1)C(C)C)C(=O)NCC(=O)N[C@@H](Cc1ccccc1)C(=O)NCC(=O)N1CCC[C@H]1C(=O)N[C@@H](CCC(=O)O)C(=O)N[C@H](C(=O)N1CCC[C@H]1C(N)=O)[C@@H](C)O [pCT] (H-CSNLSTCVLSAYWRNLNNFHRFSGMGFGPETP-NH2; disulfide 1-7) | 106 ± 6% | 47 ± 4% | 80 ± 6% | 52 ± 4% | 101 ± 7%
 |  |  |  |  | CC(C)C[C@H](NC(=O)[C@H](CCCCN)NC(=O)CNC(=O)[C@H](CC(C)C)NC(=O)[C@@H](NC(=O)[C@@H]1CSSC[C@H](N)C(=O)N[C@@H](CO)C(=O)N[C@@H](CC(N)=O)C(=O)N[C@@H](CC(C)C)C(=O)N[C@@H](CO)C(=O)N[C@@H]([C@@H](C)O)C(=O)N1)C(C)C)C(=O)N[C@@H](CO)C(=O)N[C@@H](CCC(N)=O)C(=O)N[C@@H](CCC(=O)O)C(=O)N[C@@H](CC(C)C)C(=O)N[C@@H](Cc1c[nH]cn1)C(=O)N[C@@H](CCCCN)C(=O)N[C@@H](CC(C)C)C(=O)N[C@@H](CCC(N)=O)C(=O)N[C@H](C(=O)N[C@@H](Cc1ccc(O)cc1)C(=O)N1CCC[C@H]1C(=O)N[C@@H](CCCNC(=N)N)C(=O)N[C@H](C(=O)N[C@@H](CC(N)=O)C(=O)N[C@H](C(=O)NCC(=O)N[C@@H](CO)C(=O)NCC(=O)N[C@H](C(=O)N1CCC[C@H]1C(N)=O)[C@@H](C)O)[C@@H](C)O)[C@@H](C)O)[C@@H](C)O [sCT] | 102 ± 6% | 95 ± 4% | 108 ± 6% | 91 ± 6% | 101 ± 5%
